Laboratory results taken from US20120010148A1, “COMBINATION THERAPIES USING NAP” (ALLON THERAPEUTICS INC., priority 2008, published 2012).
“Also recorded” adds a separate entry of the source.

What was measured:
ischemic injury = conditions: after ischemic injury; cited from earlier work
schizophrenia patients = conditions: human clinical trial; cited from earlier work
STOP+/− mice [1] = assay: Object recognition and discrimination test; type: in vivo, mouse
Method: (§1) The NAP vehicle solution (termed DD), included the following ingredients (per milliliter): 7.5 mg of NaCl, 1.7 mg of citric acid monohydrate, 3 mg of disodium phosphate dihydrate, and 0.2 mg of benzalkonium chloride solution (50%) (Alcalay R N et al., Neurosci Lett, 361(1-3): 128-131 (2004)). NAP or vehicle solution (DD) was administered to mice hand-held in a semisupine position with nostrils facing the investigator. A pipette tip was used to administer 2.5 μl/nostril. The mouse was hand-held until the solution was totally absorbed (10 s). […]
The test is based on visual discrimination between two different objects in an arena of 30 cm×40 cm. […] One hour after the daily intranasal NAP treatment, or clozapine injection, each male mouse was exposed to two identical objects for 5 minutes and the time spent sniffing/touching each object was measured (first daily session). Three hours later, the mice were exposed to one familiar and one novel object for 3 minutes and the time spent sniffing/touching each object was measured again (second session, measuring visual memory). The data was analyzed using two different methods. The first method measured the time spent exploring an object, novel or familiar, and compared the two. The second method evaluated the discrimination capacity of the mice between the novel object and the familiar object using the following formula. […]

STOP+/− mice [2] = assay: Morris water maze and probe test; type: in vivo, mouse
Method: as §1
The test measures the ability of rodents to learn and remember, by spatial navigation, the place of the hidden platform in a round water maze. […] Here, mice were monitored on five consecutive swimming days. […] The time required to reach the platform during the first daily test (indicative of learning and intact reference memory) and the time required to reach the platform in the second trial [indicative of short-term (working) memory] were measured and recorded separately. […] The platform was removed from the maze and the time spent by the mice in the pool's quadrant where the platform used to be was recorded. […] Mice were released into the water and the time taken to find the platform was recorded (maximum 60 seconds). […]

CC[C@H](C)[C@H](NC(=O)[C@H](CO)NC(=O)[C@@H](NC(=O)[C@@H]1CCCN1C(=O)[C@H](C)NC(=O)[C@@H](N)CC(N)=O)C(C)C)C(=O)N1CCC[C@H]1C(=O)N[C@@H](CCC(N)=O)C(=O)O [NAP]
infarct volume and motor function deficits (ischemic injury): reduced infarct volume and motor function deficits | activity in schizophrenia patients (schizophrenia patients): shown activity | object recognition / discrimination of novel object (STOP+/− mice [1]; Example 3, STOP+/− male mice, 3 h after first session, NAP intranasal 0.5 μg/mouse/day or clozapine 10 mg/kg IP, FIG. 9): ameliorated completely the cognitive impairment; also recorded: significantly beneficial | object recognition, discrimination capacity D2 (memory scores) (STOP+/− mice [1]; Example 4, STOP+/− mice, NAP 0.5 microgram/mouse/day, clozapine 3 mg/kg/day, versus pooled controls, FIG. 12): effective to increase memory scores | probe test, time in area where the platform used to be (spatial memory) (STOP+/− mice [2]; Example 3, STOP+/− male mice, 5th day, NAP intranasal 0.5 μg/mouse/day or clozapine IP, FIG. 10): significantly improved the performance; also recorded: significantly more time | Morris water maze learning and memory (STOP+/− mice [2]; Example 4, STOP+/− mice, NAP 0.5 microgram/mouse/day, clozapine 3 mg/kg/day, FIG. 13): protection against adverse clozapine effects on learning
